Experiments:
[1] = system: aryl hydrocarbon hydroxylase (AHH) induction in rat hepatoma H-4-II-E cells; settings: Table 1, PCB congeners; cited from earlier work
[2] = system: ethoxyresorufin O-deethylase (EROD) induction in rat hepatoma H-4-II-E cells; settings: Table 1, PCB congeners; cited from earlier work
[3] = system: hepatic microsomal AHH and EROD; experiment: In vivo induction of rat hepatic microsomal AHH and EROD; settings: 300 umole/kg, immature male Wistar rats (Figure 7)
DMAP N-demethylase = experiment: In vivo induction of rat hepatic microsomal DMAP N-demethylase; settings: 300 umole/kg, immature male Wistar rats (Figure 7)
[4] = target: T1, 2,3,7,8-TCDD hepatic cytosolic receptor protein (Rattus norvegicus, UniProt P41738); experiment: Competitive binding to the rat hepatic cytosolic 2,3,7,8-TCDD receptor protein; settings: for competition with [3H]-2,3,7,8-TCDD for the receptor binding protein: dose-response competition experiments, at high concentrations
T1 sequence (P41738 10-853): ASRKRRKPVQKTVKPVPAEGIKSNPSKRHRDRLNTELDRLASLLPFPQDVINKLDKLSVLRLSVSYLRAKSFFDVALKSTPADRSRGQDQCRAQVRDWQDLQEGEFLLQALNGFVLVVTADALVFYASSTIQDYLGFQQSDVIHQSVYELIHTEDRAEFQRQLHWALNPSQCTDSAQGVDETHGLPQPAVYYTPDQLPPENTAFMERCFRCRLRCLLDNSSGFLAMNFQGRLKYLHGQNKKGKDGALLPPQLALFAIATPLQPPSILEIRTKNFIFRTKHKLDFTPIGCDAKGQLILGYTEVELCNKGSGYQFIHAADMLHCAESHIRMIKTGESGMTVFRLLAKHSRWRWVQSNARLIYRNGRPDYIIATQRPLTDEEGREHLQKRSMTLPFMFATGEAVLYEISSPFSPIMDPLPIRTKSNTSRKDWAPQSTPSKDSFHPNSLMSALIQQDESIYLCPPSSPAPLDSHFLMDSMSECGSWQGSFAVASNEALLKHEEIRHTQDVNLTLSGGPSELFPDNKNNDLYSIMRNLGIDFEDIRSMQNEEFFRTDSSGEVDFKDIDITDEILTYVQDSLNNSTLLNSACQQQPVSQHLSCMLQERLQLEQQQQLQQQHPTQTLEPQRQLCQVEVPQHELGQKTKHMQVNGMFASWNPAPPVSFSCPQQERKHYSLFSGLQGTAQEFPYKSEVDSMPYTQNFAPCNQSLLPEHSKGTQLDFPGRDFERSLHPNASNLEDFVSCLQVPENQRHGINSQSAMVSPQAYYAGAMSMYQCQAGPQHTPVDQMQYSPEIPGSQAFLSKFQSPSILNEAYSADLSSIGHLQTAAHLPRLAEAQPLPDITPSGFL

pullets = settings: eggs from pullets receiving the PCB in their diet at 20 ppm; cited from earlier work
rats = settings: cited from earlier work
[5] = injected intraperitoneally on days 1 and 3, 150 umole/kg per injection in corn oil, killed on day 6

**Q.** With `Clc1ccc(-c2ccc(Cl)c(Cl)c2)cc1Cl` [3,3',4,4'-Tetra, 3,3',4,4'-tetrachlorobiphenyl] as the compound, how does the “-log EC50 AHH induction” value [1] read?
**A.** Its value is 7.55.

**Q.** What about the “-log EC50 EROD induction” value [2] of the same compound?
**A.** Its value is 7.05.

**Q.** What does the source list for `Clc1ccc(-c2cc(Cl)c(Cl)c(Cl)c2Cl)cc1` [2,3,4,4',5-Penta, 2,3,4,4',5-Pentachlorobiphenyl]?
**A.** in vivo induction of microsomal AHH and EROD [3]: significantly induced both; in vivo induction of DMAP N-demethylase (DMAP N-demethylase): inducers; -log EC50 AHH induction [1]: 6.02; -log EC50 EROD induction [2]: 6.25

**Q.** With `Clc1cc2c(cc1Cl)Oc1cc(Cl)c(Cl)cc1O2` [TCDD, 2,3,7,8-tetrachlorodibenzo-p-dioxin, reference compound] as the compound, how does the “-log EC50 AHH induction” value [1] read?
**A.** The value was 10.02.

**Q.** And the “-log EC50 EROD induction” value [2]?
**A.** The value was 10.10.

**Q.** For `Clc1ccc(-c2ccc(Cl)c(Cl)c2Cl)cc1` [2,3,4,4'-Tetra], which “-log EC50 AHH induction” value [1] is on record?
**A.** The value was 4.96.

**Q.** What about the “-log EC50 EROD induction” value [2] of the same compound?
**A.** The value was 5.72.

**Q.** For `CC(C)(C)c1ccc(-c2cc(Cl)c(Cl)c(Cl)c2Cl)cc1` [C(CH3)3, 4'-tert-butyl-2,3,4,5-tetrachlorobiphenyl], which “in vivo induction of microsomal AHH and EROD” value [3] is on record?
**A.** The value was “significantly induced both”.

**Q.** What about the “in vivo induction of DMAP N-demethylase” value (DMAP N-demethylase) of the same compound?
**A.** The value was “inactive”.

**Q.** With `Cc1ccc(-c2cc(Cl)c(Cl)c(Cl)c2Cl)cc1` [X = CH3, 4'-Methyl-2,3,4,5-tetrachlorobiphenyl] as the compound, how does the “in vivo induction of the cytochrome P-450-dependent monooxygenases (AHH, EROD, DMAP N-demethylase)” value [3] read?
**A.** Its value is “do not induce any”.

**Q.** With `O=[N+]([O-])c1ccc(-c2cc(Cl)c(Cl)c(Cl)c2Cl)cc1` [NO2, 4'-Nitro-2,3,4,5-tetrachlorobiphenyl] as the compound, how does the “in vivo induction of microsomal AHH and EROD” value [3] read?
**A.** Its value is “significantly induced both”.

**Q.** And the “in vivo induction of DMAP N-demethylase” value (DMAP N-demethylase)?
**A.** Its value is “inducers”.

**Q.** Which “in vivo induction of microsomal AHH and EROD” value [3] does the source give for `FC(F)(F)c1ccc(-c2cc(Cl)c(Cl)c(Cl)c2Cl)cc1` [X = CF3, 4'-Trifluoromethyl-2,3,4,5-tetrachlorobiphenyl] here?
**A.** Its value is “significantly induced both”.

**Q.** And the “in vivo induction of DMAP N-demethylase” value (DMAP N-demethylase)?
**A.** Its value is “inactive”.

**Q.** Which “in vivo induction of microsomal AHH and EROD” value [3] does the source give for `Clc1cc(-c2ccc(Br)cc2)c(Cl)c(Cl)c1Cl` [X = Br, 4'-Bromo-2,3,4,5-tetrachlorobiphenyl] here?
**A.** The value was “significantly induced both”.

**Q.** What about the “in vivo induction of DMAP N-demethylase” value (DMAP N-demethylase) of the same compound?
**A.** Its value is “inducers”.

**Q.** For `Oc1ccc(-c2cc(Cl)c(Cl)c(Cl)c2Cl)cc1` [X = OH, 4'-Hydroxy-2,3,4,5-tetrachlorobiphenyl], which “in vivo induction of the cytochrome P-450-dependent monooxygenases (AHH, EROD, DMAP N-demethylase)” value [3] is on record?
**A.** The value was “do not induce any”.

**Q.** For `N#Cc1ccc(-c2cc(Cl)c(Cl)c(Cl)c2Cl)cc1` [X = CN, 4'-Cyano-2,3,4,5-tetrachlorobiphenyl], which “in vivo induction of microsomal AHH and EROD” value [3] is on record?
**A.** The value was “significantly induced both”.

**Q.** What about the “in vivo induction of DMAP N-demethylase” value (DMAP N-demethylase) of the same compound?
**A.** Its value is “inducers”.

**Q.** For `CC(=O)c1ccc(-c2cc(Cl)c(Cl)c(Cl)c2Cl)cc1` [X = COCH3, 4'-Acetyl-2,3,4,5-tetrachlorobiphenyl], which “in vivo induction of the cytochrome P-450-dependent monooxygenases (AHH, EROD, DMAP N-demethylase)” value [3] is on record?
**A.** Its value is “do not induce any”.

**Q.** For `Fc1ccc(-c2cc(Cl)c(Cl)c(Cl)c2Cl)cc1` [X = F, 4'-Fluoro-2,3,4,5-tetrachlorobiphenyl], which “in vivo induction of microsomal AHH and EROD” value [3] is on record?
**A.** Its value is “significantly induced both”.

**Q.** What about the “in vivo induction of DMAP N-demethylase” value (DMAP N-demethylase) of the same compound?
**A.** Its value is “inducers”.

**Q.** For `FC(F)(F)c1ccc(-c2ccc(C(F)(F)F)c(C(F)(F)F)c2)cc1` [3,4,4'-tritrifluoromethylbiphenyl], which “competitive binding affinity for the receptor protein” value ([4]; displacement of [3H]-2,3,7,8-TCDD) is on record?
**A.** The value was “unexpectedly low”.

**Q.** Which “-log EC50 AHH induction” value [1] does the source give for `Clc1ccc(-c2cc(Cl)c(Cl)cc2Cl)cc1Cl` [2,3',4,4',5-Penta, 2,3',4,4',5-pentachlorobiphenyl] here?
**A.** The value was 4.94.

**Q.** And the “-log EC50 EROD induction” value [2]?
**A.** Its value is 5.05.

**Q.** And the embryo mortality (pullets)?
**A.** Its embryo mortality is 100%.

**Q.** And the thymic atrophy (rats)?
**A.** The thymic atrophy was “thymic atrophy”.

**Q.** For `Clc1ccc(-c2ccc(Cl)c(Cl)c2Cl)cc1Cl` [2,3,3',4,4'-Penta, 2,3,3',4,4'-Pentachlorobiphenyl], which “-log EC50 AHH induction” value [1] is on record?
**A.** Its value is 7.06.

**Q.** What about the “-log EC50 EROD induction” value [2] of the same compound?
**A.** Its value is 6.92.

**Q.** And the thymic atrophy (rats)?
**A.** The thymic atrophy was “thymic atrophy”.

**Q.** With `Clc1ccc(-c2cc(Cl)c(Cl)c(Cl)c2Cl)cc1Cl` [2,3,3',4,4',5-Hexa, 2,3,3',4,4',5-hexachlorobiphenyl] as the compound, how does the “-log EC50 AHH induction” value [1] read?
**A.** The value was 5.68.

**Q.** What about the “-log EC50 EROD induction” value [2] of the same compound?
**A.** Its value is 6.05.

**Q.** What about the thymic atrophy (rats) of the same compound?
**A.** The thymic atrophy was “thymic atrophy”.

**Q.** With `Cc1ccc2cc3c(ccc4ccccc43)c3c2c1CC3` [3-MC, 3-methylcholanthrene, reference compound] as the compound, how does the “-log EC50 AHH induction” value [1] read?
**A.** Its value is 5.89.

**Q.** And the “-log EC50 EROD induction” value [2]?
**A.** Its value is 6.20.

**Q.** Which “in vivo induction of DMAP N-demethylase” value (DMAP N-demethylase) does the source give for `Clc1cc(-c2ccc(I)cc2)c(Cl)c(Cl)c1Cl` [X= I, 4'-Iodo-2,3,4,5-tetrachlorobiphenyl] here?
**A.** The value was “inactive”.

**Q.** Which “-log EC50 AHH induction” value [1] does the source give for `Clc1ccc(-c2cc(Cl)c(Cl)c(Cl)c2)cc1Cl` [3,3',4,4'5-Penta, 3,3',4,4',5-pentachlorobiphenyl] here?
**A.** The value was 9.62.

**Q.** What about the “-log EC50 EROD induction” value [2] of the same compound?
**A.** The value was 9.61.

**Q.** Which results are given for `Clc1cc(Cl)c(-c2cc(Cl)c(Cl)c(Cl)c2)cc1Cl` [2,3',4,4',5,5'-Hexa]?
**A.** -log EC50 AHH induction [1]: 4.88; -log EC50 EROD induction [2]: 5.05

**Q.** With `Clc1cc(-c2ccccc2)c(Cl)c(Cl)c1Cl` [2,3,4,5-Tetra, 2,3,4,5-tetrachlorobiphenyl] as the compound, how does the “competition with [3H]-2,3,7,8-TCDD for the receptor binding protein” value [4] read?
**A.** The value was “some competition”.

**Q.** What about the “in vivo induction of the cytochrome P-450-dependent monooxygenases (AHH, EROD, DMAP N-demethylase)” value [3] of the same compound?
**A.** Its value is “do not induce any”.

**Q.** For `Clc1cc(Cl)c(-c2cc(Cl)c(Cl)cc2Cl)cc1Cl` [2,2',4,4',5,5'-Hexa, 2,2',4,4',5,5'-hexachlorobiphenyl], which “competition with [3H]-2,3,7,8-TCDD for the receptor binding protein” value [4] is on record?
**A.** Its value is “some competition”.

**Q.** Which “in vivo induction of microsomal AHH and EROD” value [3] does the source give for `CC(C)c1ccc(-c2cc(Cl)c(Cl)c(Cl)c2Cl)cc1` [X = i-C3H7, 4'-Isopropyl-2,3,4,5-tetrachlorobiphenyl] here?
**A.** Its value is “significantly induced both”.

**Q.** What about the “in vivo induction of DMAP N-demethylase” value (DMAP N-demethylase) of the same compound?
**A.** Its value is “inactive”.

**Q.** What about the “Residue levels in rat liver” value [5] of the same compound?
**A.** The value was 1-4 ppm.

**Q.** For `Clc1ccc(-c2cc(Cl)c(Cl)c(Cl)c2)c(Cl)c1` [2',3,4,4',5-Penta], which “-log EC50 AHH induction” value [1] is on record?
**A.** The value was 5.41.

**Q.** What about the “-log EC50 EROD induction” value [2] of the same compound?
**A.** The value was 5.95.

**Q.** With `Clc1cc(-c2ccc(-c3ccccc3)cc2)c(Cl)c(Cl)c1Cl` [C6H5, 4'-Phenyl-2,3,4,5-tetrachlorobiphenyl] as the compound, how does the “in vivo induction of microsomal AHH and EROD” value [3] read?
**A.** The value was “significantly induced both”.

**Q.** Which “-log EC50 AHH induction” value [1] does the source give for `Clc1cc(-c2ccc(Cl)c(Cl)c2Cl)cc(Cl)c1Cl` [2,3,3',4,4',5'-Hexa, 2,3,3',4,4',5'-hexachlorobiphenyl] here?
**A.** The value was 6.15.

**Q.** What about the “-log EC50 EROD induction” value [2] of the same compound?
**A.** Its value is 5.90.

**Q.** What about the thymic atrophy (rats) of the same compound?
**A.** Its thymic atrophy is “thymic atrophy”.
